Measured values taken from US20240100170A1, “CYCLIC-AMP RESPONSE ELEMENT BINDING PROTEIN (CBP) AND/OR ADENOVIRAL E1A BINDING PROTEIN OF 300 KDA (P300) DEGRADATION COMPOUNDS AND METHODS OF USE” (CULLGEN (SHANGHAI), INC., priority 2020, published 2024).
Entries after “also recorded” stand apart in the source; their conditions may differ.

Tests used:
[1] = biological target: T1, P300 (Homo sapiens, UniProt Q09472); test: P300 protein level by immunoblotting in 22RV1 cells; type: cell-based; set-up: LNCaP or 22RV1 cells that express CBP/P300 proteins were treated with GNE-781 or the bivalent compounds; endogenous in cells; host or cells: LNCaP or 22RV1 (not given); settings: various concentrations, compound vs analogue that lost cereblon binding, FIG. 7B
Description: (§1) Specific exemplary bivalent compounds were characterized in LNCaP or 22RV1 cells. LNCaP or 22RV1 cells that express CBP/P300 proteins were treated with GNE-781 or the bivalent compounds disclosed herein (P-001 to P-265) for indicated hours. Cells were collected, lysed and subject to immunoblotting using an antibody specific to P300 or CBP proteins. Tubulin or vinculin was included as the loading control. DMSO was used as the negative control.
(§2) LNCaP (clone FGC), 22RV1 and other cells were cultured at 37° C. with 5% CO 2 in RPMI 1640 Medium supplemented with 10% fetal bovine serum. Cells were authenticated using the short tandem repeat (STR) assays. Mycoplasma test results were negative.
Cultured cells or tissue chunks were washed with cold PBS once and lysed in cold RIPA buffer supplemented with protease inhibitors and phosphatase inhibitors (Beyotime Biotechnology). The solutions were then incubated at 4° C. for 30 minutes with gentle agitation to fully lyse cells. Cell lysates were centrifuged at 13,000 rpm for 10 minutes at 4° C. and pellets were discarded. Total protein concentrations in the lysates were determined by BCA assays (Beyotime Biotechnology). Cell lysates were mixed with Laemmli loading buffer to 1 X and heated at 99° C. for 5 min. […] Protein bands were quantitated using the accompanied software provided by Bio-Rad.

[2] = biological target: T2, CBP (Homo sapiens, UniProt Q92793); test: CBP immunoblotting in 22RV1 subcutaneous xenograft tumors; type: in vivo, athymic nude mice; set-up: from tissue; host or cells: 22RV1 subcutaneous xenograft tumours in athymic nude mice; settings: single dose 40 mg/kg, intraperitoneally or orally, six hours after administration; FIG. 9
Description: (§3) In addition to cultured cells, athymic nude mice bearing 22RV1 subcutaneous xenograft tumors at the right flank were intraperitoneally or orally treated with 40 mg/kg bivalent compounds. Six hours after drug administration, animals were sacrificed for immunoblotting of P300 and CBP in homogenized xenograft tumor masses. […] Moreover, ICR mice were orally treated with 40 mg/kg bivalent compounds. Six hours after drug administration, animals were sacrificed for immunoblotting of CBP in homogenized lung tissues.
(§4) Athymic nude mice bearing 22RV1 subcutaneous xenograft tumors at the right flank were intraperitoneally or orally treated with selected bivalent compounds at 40 mg/kg. Six hours after drug administration, animals were sacrificed, and xenograft tumors were collected for immunoblotting of P300 and CBP.
(§5) Cultured cells or tissue chunks were washed with cold PBS once and lysed in cold RIPA buffer supplemented with protease inhibitors and phosphatase inhibitors (Beyotime Biotechnology). The solutions were then incubated at 4° C. for 30 minutes with gentle agitation to fully lyse cells. Cell lysates were centrifuged at 13,000 rpm for 10 minutes at 4° C. and pellets were discarded. Total protein concentrations in the lysates were determined by BCA assays (Beyotime Biotechnology). Cell lysates were mixed with Laemmli loading buffer to 1 X and heated at 99° C. for 5 min. Proteins were resolved on SDS-PAGE and visualized by chemiluminescence. Images were taken by a ChemiDoc MP Imaging system (Bio-Rad). Protein bands were quantitated using the accompanied software provided by Bio-Rad.
(§6) All animal experiments were performed under protocols approved by the Institutional Animal Care and Use Committee (IACUC) of Cullgen. Athymic nude mice (male, 5-weeks old) received 5 million 22RV1 cells subcutaneously inoculated at the right flank site. Twenty days following inoculation, tumors were approxmiately 500 mm^3 in size. Tumor-bearing mice were treated intraperitoneally or via oral gavage with vehicle or bivalent compounds at indicated doses. […]

[3] = biological target: T2, CBP; test: CBP protein level by immunoblotting in LNCaP cells; type: cell-based; set-up: LNCaP or 22RV1 cells that express CBP/P300 proteins were treated with GNE-781 or the bivalent compounds; endogenous in cells; host or cells: LNCaP (clone FGC); settings: single dose, FIG. 8
Description: as §1, §2, §5

[4] = biological target: T1, P300; test: P300 immunoblotting in 22RV1 subcutaneous xenograft tumors; type: in vivo, athymic nude mice; set-up: from tissue; host or cells: 22RV1 subcutaneous xenograft tumours in athymic nude mice; settings: single dose 40 mg/kg, intraperitoneally or orally, six hours after administration; FIG. 9
Description: as §3, §4, §5, §6

[5] = biological target: T1, P300; test: P300 protein level by immunoblotting in LNCaP cells; type: cell-based; set-up: LNCaP or 22RV1 cells that express CBP/P300 proteins were treated with GNE-781 or the bivalent compounds; endogenous in cells; host or cells: LNCaP or 22RV1 (not given)
Description: as §1, §2, §5

T2 sequence (Q92793 whole entry): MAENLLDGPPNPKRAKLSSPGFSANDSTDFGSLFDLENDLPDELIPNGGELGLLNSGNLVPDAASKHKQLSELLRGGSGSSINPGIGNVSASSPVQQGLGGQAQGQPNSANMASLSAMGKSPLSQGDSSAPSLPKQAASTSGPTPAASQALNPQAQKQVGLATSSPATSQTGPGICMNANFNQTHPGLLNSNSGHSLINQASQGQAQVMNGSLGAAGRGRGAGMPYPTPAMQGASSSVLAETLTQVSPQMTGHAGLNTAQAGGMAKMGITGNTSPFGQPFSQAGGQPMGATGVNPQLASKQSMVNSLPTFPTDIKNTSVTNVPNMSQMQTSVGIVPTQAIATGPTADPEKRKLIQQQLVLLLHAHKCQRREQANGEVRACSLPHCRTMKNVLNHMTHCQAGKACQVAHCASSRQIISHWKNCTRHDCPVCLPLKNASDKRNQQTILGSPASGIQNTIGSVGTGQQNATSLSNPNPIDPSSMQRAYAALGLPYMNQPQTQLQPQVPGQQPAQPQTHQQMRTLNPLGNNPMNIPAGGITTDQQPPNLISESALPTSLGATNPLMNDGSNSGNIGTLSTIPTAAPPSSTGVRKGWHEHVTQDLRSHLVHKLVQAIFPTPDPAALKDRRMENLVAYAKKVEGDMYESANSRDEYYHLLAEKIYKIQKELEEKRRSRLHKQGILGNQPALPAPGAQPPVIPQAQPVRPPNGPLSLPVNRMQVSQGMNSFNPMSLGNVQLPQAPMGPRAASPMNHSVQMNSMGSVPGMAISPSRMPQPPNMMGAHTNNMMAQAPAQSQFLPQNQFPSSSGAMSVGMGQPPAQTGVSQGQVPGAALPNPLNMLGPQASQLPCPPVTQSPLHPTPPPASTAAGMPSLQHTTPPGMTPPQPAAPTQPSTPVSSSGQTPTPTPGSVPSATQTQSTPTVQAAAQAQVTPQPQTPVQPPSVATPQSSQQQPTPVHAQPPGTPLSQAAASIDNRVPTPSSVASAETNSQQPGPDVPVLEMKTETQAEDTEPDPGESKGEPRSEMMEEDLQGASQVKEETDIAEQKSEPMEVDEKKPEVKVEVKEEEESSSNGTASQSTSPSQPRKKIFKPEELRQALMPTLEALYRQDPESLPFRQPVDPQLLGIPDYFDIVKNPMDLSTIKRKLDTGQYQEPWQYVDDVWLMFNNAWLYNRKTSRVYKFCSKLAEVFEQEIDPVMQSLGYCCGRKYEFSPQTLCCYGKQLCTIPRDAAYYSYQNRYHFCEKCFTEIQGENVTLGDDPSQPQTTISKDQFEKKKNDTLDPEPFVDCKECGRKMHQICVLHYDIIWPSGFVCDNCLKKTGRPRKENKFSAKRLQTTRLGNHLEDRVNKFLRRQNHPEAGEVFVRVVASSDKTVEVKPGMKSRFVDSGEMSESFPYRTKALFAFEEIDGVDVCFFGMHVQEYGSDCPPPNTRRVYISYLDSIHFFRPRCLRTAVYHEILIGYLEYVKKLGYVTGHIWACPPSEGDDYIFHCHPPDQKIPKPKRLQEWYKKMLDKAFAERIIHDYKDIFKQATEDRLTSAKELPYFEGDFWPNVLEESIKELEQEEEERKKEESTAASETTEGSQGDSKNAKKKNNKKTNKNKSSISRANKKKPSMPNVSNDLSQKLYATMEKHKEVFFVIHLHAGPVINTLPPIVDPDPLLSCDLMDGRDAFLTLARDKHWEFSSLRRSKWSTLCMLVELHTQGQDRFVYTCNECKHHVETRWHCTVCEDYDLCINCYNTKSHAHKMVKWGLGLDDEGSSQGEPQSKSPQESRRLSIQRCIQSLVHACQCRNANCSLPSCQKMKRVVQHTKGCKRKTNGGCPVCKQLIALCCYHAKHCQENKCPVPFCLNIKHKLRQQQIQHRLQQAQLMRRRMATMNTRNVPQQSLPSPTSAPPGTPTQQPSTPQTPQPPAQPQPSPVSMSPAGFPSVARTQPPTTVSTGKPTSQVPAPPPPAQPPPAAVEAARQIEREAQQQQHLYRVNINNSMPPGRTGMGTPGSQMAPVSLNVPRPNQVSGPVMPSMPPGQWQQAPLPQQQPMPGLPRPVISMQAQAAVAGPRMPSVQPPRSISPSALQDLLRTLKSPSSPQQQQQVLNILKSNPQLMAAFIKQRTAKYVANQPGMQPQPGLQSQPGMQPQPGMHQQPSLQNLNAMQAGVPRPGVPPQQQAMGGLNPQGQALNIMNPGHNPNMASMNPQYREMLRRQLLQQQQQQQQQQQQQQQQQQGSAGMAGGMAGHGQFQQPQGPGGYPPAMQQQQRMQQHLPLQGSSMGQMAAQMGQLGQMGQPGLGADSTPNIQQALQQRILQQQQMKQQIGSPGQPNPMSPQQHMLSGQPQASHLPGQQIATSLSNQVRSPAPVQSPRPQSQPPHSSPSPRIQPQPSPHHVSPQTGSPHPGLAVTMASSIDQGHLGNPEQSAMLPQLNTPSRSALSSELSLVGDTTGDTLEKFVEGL
T1 sequence (Q09472 whole entry): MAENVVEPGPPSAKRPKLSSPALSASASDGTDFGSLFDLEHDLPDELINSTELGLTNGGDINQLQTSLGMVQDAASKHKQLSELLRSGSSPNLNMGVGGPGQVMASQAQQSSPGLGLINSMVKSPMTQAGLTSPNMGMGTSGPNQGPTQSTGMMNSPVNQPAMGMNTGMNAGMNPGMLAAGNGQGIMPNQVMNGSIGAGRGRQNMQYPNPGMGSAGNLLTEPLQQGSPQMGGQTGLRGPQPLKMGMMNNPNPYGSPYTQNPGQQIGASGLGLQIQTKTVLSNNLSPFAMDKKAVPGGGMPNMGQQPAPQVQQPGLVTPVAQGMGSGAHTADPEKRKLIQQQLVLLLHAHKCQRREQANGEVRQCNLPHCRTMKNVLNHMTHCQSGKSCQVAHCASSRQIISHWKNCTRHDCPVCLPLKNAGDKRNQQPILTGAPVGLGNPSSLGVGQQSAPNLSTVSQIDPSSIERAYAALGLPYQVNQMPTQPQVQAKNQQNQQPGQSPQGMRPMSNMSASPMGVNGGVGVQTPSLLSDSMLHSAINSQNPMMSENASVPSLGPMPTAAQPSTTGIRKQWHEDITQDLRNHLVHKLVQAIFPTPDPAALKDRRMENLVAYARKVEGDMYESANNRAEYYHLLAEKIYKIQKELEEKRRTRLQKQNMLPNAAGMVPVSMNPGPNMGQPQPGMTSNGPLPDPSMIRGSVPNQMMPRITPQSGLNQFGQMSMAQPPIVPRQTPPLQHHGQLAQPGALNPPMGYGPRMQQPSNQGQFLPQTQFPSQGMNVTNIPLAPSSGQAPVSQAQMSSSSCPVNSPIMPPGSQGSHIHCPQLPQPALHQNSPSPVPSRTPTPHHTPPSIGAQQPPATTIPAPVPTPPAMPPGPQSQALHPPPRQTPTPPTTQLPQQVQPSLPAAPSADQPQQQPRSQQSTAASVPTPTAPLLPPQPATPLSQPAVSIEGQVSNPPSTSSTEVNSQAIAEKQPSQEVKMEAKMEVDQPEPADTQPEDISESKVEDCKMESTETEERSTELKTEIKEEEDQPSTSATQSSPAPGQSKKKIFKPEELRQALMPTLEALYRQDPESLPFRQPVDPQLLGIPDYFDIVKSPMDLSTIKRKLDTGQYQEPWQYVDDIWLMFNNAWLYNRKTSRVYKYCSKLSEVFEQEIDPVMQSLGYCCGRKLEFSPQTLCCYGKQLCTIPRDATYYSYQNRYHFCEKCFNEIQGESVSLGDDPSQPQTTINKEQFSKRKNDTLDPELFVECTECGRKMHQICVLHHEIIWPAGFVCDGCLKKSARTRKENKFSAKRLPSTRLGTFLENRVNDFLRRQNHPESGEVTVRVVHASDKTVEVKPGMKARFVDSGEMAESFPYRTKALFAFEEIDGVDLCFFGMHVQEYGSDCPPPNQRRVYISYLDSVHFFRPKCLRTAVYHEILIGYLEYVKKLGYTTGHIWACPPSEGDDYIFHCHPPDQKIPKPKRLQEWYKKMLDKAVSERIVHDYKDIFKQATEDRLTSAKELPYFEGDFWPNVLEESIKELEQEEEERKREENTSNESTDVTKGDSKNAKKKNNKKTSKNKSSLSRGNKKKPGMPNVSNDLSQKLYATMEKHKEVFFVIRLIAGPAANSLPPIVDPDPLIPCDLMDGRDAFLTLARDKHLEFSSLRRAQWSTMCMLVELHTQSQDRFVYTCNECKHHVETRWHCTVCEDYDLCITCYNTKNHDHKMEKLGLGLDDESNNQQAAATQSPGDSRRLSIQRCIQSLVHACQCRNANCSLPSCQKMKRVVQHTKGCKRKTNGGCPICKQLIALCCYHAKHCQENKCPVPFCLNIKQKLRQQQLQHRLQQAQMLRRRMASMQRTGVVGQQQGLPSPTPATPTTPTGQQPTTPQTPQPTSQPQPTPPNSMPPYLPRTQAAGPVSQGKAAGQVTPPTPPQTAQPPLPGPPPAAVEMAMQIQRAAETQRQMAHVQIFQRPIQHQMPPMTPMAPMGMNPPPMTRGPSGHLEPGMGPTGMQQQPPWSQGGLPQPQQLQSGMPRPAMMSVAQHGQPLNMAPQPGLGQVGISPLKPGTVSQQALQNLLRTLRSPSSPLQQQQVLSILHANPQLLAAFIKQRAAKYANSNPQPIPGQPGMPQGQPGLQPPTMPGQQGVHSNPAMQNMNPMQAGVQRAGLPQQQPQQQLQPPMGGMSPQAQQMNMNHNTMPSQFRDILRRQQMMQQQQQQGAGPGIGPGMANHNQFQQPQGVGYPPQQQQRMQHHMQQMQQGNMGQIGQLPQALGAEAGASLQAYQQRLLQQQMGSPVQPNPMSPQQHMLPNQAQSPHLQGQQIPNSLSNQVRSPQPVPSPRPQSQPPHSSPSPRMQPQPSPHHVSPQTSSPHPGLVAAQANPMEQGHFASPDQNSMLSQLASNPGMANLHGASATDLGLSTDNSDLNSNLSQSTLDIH

With `CNC(=O)N1CCc2c(c(N3CCCc4cc(-c5cnn(C)c5)c(C(F)F)cc43)nn2C2CCN(C(=O)CCCCCNc3cccc4c3C(=O)N(C3CCC(=O)NC3=O)C4=O)CC2)C1` (stereo not drawn) [P-034, 3-(7-(difluoromethyl)-6-(1-methyl-1H-pyrazol-4-yl)-3,4-dihydroquinolin-1(2H)-yl)-1-(1-(6-((2-(2,6-dioxopiperidin-3-yl)-1,3-dioxoisoindolin-4-yl)amino)hexanoyl)piperidin-4-yl)-N-methyl-1,4,6,7-tetrahydro-5H-pyrazolo[4,3-c]pyridine-5-carboxamide] the P300 protein levels [1] was “a chemical modification that disrupted cereblon binding abolished P300 degradation”, the “CBP protein levels in xenograft tumors” value [2] was “significantly reducing” and the “degradation of CBP in combination with pomalidomide, MG-132, Bortezomib or MLN4924” value [3] was “compromised; also recorded: could be neutralized”. The “P300 protein levels in xenograft tumors” value [4] was “significantly reducing”, the “degradation of P300 in combination with pomalidomide, MG-132, Bortezomib or MLN4924” value ([5]; single dose, FIG. 8) was “compromised; also recorded: could be neutralized” and the P300 protein levels ([5]; various concentrations, compound vs analogue that lost cereblon binding, FIG. 7A) was “a chemical modification that disrupted cereblon binding abolished P300 degradation”.
